In this experiment the test system is MV-4-11 cells. In words: Gene expression microarray analysis (Affymetrix PrimeView) and GSEA. The settings on record: ProbeSet 11744854_x_at; LIST B. Also noted: RFU PODN (11730768_x_at) / Fold change /veh PODN (11730768_x_at) / RFU LINC00158 (11744669_a_at) / Fold change /veh LINC00158 (11744669_a_at) / RFU DUSP10 (11751237_a_at) / Fold change /veh DUSP10 (11751237_a_at) / RFU ID3 (11757404_x_at) / Fold change /veh ID3 (11757404_x_at) / RFU PLEKHG5 (11737974_s_at) / Fold change /veh PLEKHG5 (11737974_s_at) / RFU LRRC4B (11730491_at) / Fold change /veh LRRC4B (11730491_at) / RFU GIMAP4 (11747438_a_at) / Fold change /veh GIMAP4 (11747438_a_at) / RFU KRT8 (11758183_x_at) / Fold change /veh KRT8 (11758183_x_at) / RFU CNN1 (11734310_a_at) / Fold change /veh CNN1 (11734310_a_at) / RFU VPS37D (11726825_at) / Fold change /veh VPS37D (11726825_at) / RFU C10orf10 (11716522_x_at) / Fold change /veh C10orf10 (11716522_x_at) / RFU KIR2DL2 /// KIR2DL4 /// KIR2DL5A /// KIR2DL5B /// KIR2DS1 /// KIR2DS2 /// KIR2DS3 /// KIR2DS4 /// KIR3DL3 /// KIR3DL3 /// KIR3DS1 (11738374_at) / Fold change /veh KIR2DL2 /// KIR2DL4 /// KIR2DL5A /// KIR2DL5B /// KIR2DS1 /// KIR2DS2 /// KIR2DS3 /// KIR2DS4 /// KIR3DL3 /// KIR3DL3 /// KIR3DS1 (11738374_at) / RFU C1QL1 (11718748_at) / Fold change /veh C1QL1 (11718748_at) / RFU TMPRSS4 (11747572_a_at) / Fold change /veh TMPRSS4 (11747572_a_at) / RFU HAMP (11756126_x_at) / Fold change /veh HAMP (11756126_x_at) / RFU RNFT2 (11725882_a_at) / Fold change /veh RNFT2 (11725882_a_at) / RFU NR4A2 (11747474_a_at) / Fold change /veh NR4A2 (11747474_a_at) / RFU ABCC12 (11746883_a_at) / Fold change /veh ABCC12 (11746883_a_at) / RFU TMEM136 (11760407_x_at) / Fold change /veh TMEM136 (11760407_x_at) / RFU CLDN22 /// WWC2 (11732394_at) / Fold change /veh CLDN22 /// WWC2 (11732394_at) / RFU HLA-DPB1 (11760878_x_at) / Fold change /veh HLA-DPB1 (11760878_x_at) / RFU SPINT1 (11716480_a_at) / Fold change /veh SPINT1 (11716480_a_at) / RFU GAP43 (11754022_s_at) / Fold change /veh GAP43 (11754022_s_at) / RFU A4GNT (11735810_at) / Fold change /veh A4GNT (11735810_at) / RFU PRB3 (11715151_x_at) / Fold change /veh PRB3 (11715151_x_at) / RFU TUBB4B (11761932_at) / Fold change /veh TUBB4B (11761932_at) / RFU CAPN14 (11732068_a_at) / Fold change /veh CAPN14 (11732068_a_at) / RFU TMCC2 (11721928_a_at) / Fold change /veh TMCC2 (11721928_a_at) / RFU IRGQ (11745062_a_at) / Fold change /veh IRGQ (11745062_a_at) / RFU FAM174B (11720279_a_at) / Fold change /veh FAM174B (11720279_a_at) / RFU TMPRSS4 (11748680_a_at) / Fold change /veh TMPRSS4 (11748680_a_at) / RFU FAM212B (11763350_a_at) / Fold change /veh FAM212B (11763350_a_at) / RFU PLEKHG5 (11743358_a_at) / Fold change /veh PLEKHG5 (11743358_a_at) / RFU ZSCAN30 (11745921_a_at) / Fold change /veh ZSCAN30 (11745921_a_at) / RFU CMKLR1 (11741424_a_at) / Fold change /veh CMKLR1 (11741424_a_at) / RFU LOC101060620 /// MAPK8IP1 (11723275_at) / Fold change /veh LOC101060620 /// MAPK8IP1 (11723275_at) / RFU SPTSSB (11747773_x_at) / Fold change /veh SPTSSB (11747773_x_at) / RFU PRSS12 (11739890_at) / Fold change /veh PRSS12 (11739890_at) / RFU BIN1 (11741810_x_at) / Fold change /veh BIN1 (11741810_x_at) / RFU WNT11 (11732464_a_at) / Fold change /veh WNT11 (11732464_a_at) / RFU C10orf10 (11716521_a_at) / Fold change /veh C10orf10 (11716521_a_at) / RFU C5orf56 (11738089_at) / Fold change /veh C5orf56 (11738089_at) / RFU CYB561 (11721691_x_at) / Fold change /veh CYB561 (11721691_x_at) / RFU ANKRD19P (11752326_a_at) / Fold change /veh ANKRD19P (11752326_a_at) / RFU OR2T12 /// OR2T33 /// OR2T8 (11738714_s_at) / Fold change /veh OR2T12 /// OR2T33 /// OR2T8 (11738714_s_at) / RFU VCAN (11748164_a_at) / Fold change /veh VCAN (11748164_a_at) / RFU JSRP1 (11732532_at) / Fold change /veh JSRP1 (11732532_at) / RFU KRTAP10-11 (11738290_x_at) / Fold change /veh KRTAP10-11 (11738290_x_at) / RFU MYO3A (11730013_a_at) / Fold change /veh MYO3A (11730013_a_at) / RFU EBF3 (11725865_a_at) / Fold change /veh EBF3 (11725865_a_at) / RFU CAMK2N1 (11719241_x_at) / Fold change /veh CAMK2N1 (11719241_x_at) / RFU C5orf56 (11738088_a_at) / Fold change /veh C5orf56 (11738088_a_at) / RFU OLFML3 (11715873_a_at) / Fold change /veh OLFML3 (11715873_a_at) / RFU LOC100653217 /// NTM (11731650_a_at) / Fold change /veh LOC100653217 /// NTM (11731650_a_at) / RFU MAPK11 (11762145_a_at) / Fold change /veh MAPK11 (11762145_a_at) / RFU FIZ1 (11724087_x_at) / Fold change /veh FIZ1 (11724087_x_at) / RFU OASL (11726364_x_at) / Fold change /veh OASL (11726364_x_at) / RFU SOX15 (11748057_x_at) / Fold change /veh SOX15 (11748057_x_at) / RFU CD79A (11719716_a_at) / Fold change /veh CD79A (11719716_a_at) / RFU HIST1H1D (11736915_at) / Fold change /veh HIST1H1D (11736915_at) / RFU CASKIN2 (11723855_a_at) / Fold change /veh CASKIN2 (11723855_a_at) / RFU LOC730098 (11760151_x_at) / Fold change /veh LOC730098 (11760151_x_at) / RFU OR4N2 (11742367_at) / Fold change /veh OR4N2 (11742367_at) / RFU PRRT2 (11749266_a_at) / Fold change /veh PRRT2 (11749266_a_at) / RFU SNX32 (11753110_a_at) / Fold change /veh SNX32 (11753110_a_at) / RFU CDHR5 (11726645_a_at) / Fold change /veh CDHR5 (11726645_a_at) / RFU RCAN1 (11760418_a_at) / Fold change /veh RCAN1 (11760418_a_at) / RFU FAM167A (11723789_a_at) / Fold change /veh FAM167A (11723789_a_at) / RFU FAM26E (11764081_at) / Fold change /veh FAM26E (11764081_at) / RFU ISYNA1 (11749810_s_at) / Fold change /veh ISYNA1 (11749810_s_at) / RFU ACY1 (11761880_at) / Fold change /veh ACY1 (11761880_at) / RFU 11764098_at / Fold change /veh 11764098_at / RFU SAMD14 (11745864_x_at) / Fold change /veh SAMD14 (11745864_x_at) / RFU NPB (11741838_a_at) / Fold change /veh NPB (11741838_a_at) / RFU TMPRSS6 (11731388_a_at) / Fold change /veh TMPRSS6 (11731388_a_at) / RFU KRTAP10-2 (11738614_at) / Fold change /veh KRTAP10-2 (11738614_at) / RFU ARHGAP8 /// PRR5-ARHGAP8 (11727945_x_at) / Fold change /veh ARHGAP8 /// PRR5-ARHGAP8 (11727945_x_at) / RFU KRTAP5-7 /// NADSYN1 (11734609_at) / Fold change /veh KRTAP5-7 /// NADSYN1 (11734609_at) / RFU RASL12 (11751679_a_at) / Fold change /veh RASL12 (11751679_a_at) / RFU CDKN2B (11736163_a_at) / Fold change /veh CDKN2B (11736163_a_at) / RFU PRF1 (11729649_at) / Fold change /veh PRF1 (11729649_at) / RFU, ZNF638 /// ZNF638-IT1 / Fold change vs veh, ZNF638 /// ZNF638-IT1 / RFU, PANK3 / Fold change vs veh, PANK3 / RFU, SH3YL1 / Fold change vs veh, SH3YL1 / RFU, ZEB2 / Fold change vs veh, ZEB2 / RFU, NRIP1 / Fold change vs veh, NRIP1 / RFU, PTTG1IP / Fold change vs veh, PTTG1IP / RFU, CAPN2 / Fold change vs veh, CAPN2 / RFU, MED14 / Fold change vs veh, MED14 / RFU, SNORA58 / Fold change vs veh, SNORA58 / RFU, C1orf63 / Fold change vs veh, C1orf63 / RFU, LRRFIP1 / Fold change vs veh, LRRFIP1 / RFU, NDUFAF7 / Fold change vs veh, NDUFAF7 / RFU, SLC12A2 / Fold change vs veh, SLC12A2 / RFU, IBTK / Fold change vs veh, IBTK / RFU, ESF1 / Fold change vs veh, ESF1 / Fold change vs veh, TMEM50B / RFU, TAOK1 / Fold change vs veh, TAOK1 / RFU, ACBD3 / Fold change vs veh, ACBD3 / RFU, TMA16 / Fold change vs veh, TMA16 / RFU, RWDD3 / Fold change vs veh, RWDD3 / RFU, BCAT1 / Fold change vs veh, BCAT1 / RFU, EDEM3 / Fold change vs veh, EDEM3 / RFU, TMEM33 / Fold change vs veh, TMEM33 / RFU, WDR75 / Fold change vs veh, WDR75 / RFU, AHCTF1 / Fold change vs veh, AHCTF1 / RFU, TFRC / Fold change vs veh, TFRC / RFU, ZDHHC17 / Fold change vs veh, ZDHHC17 / RFU, NOM1 / Fold change vs veh, NOM1 / RFU, ARL8B / Fold change vs veh, ARL8B / RFU, ZBTB11 / Fold change vs veh, ZBTB11 / RFU, TAMM41 / Fold change vs veh, TAMM41 / RFU, KIAA1704 /// LOC100996395 / Fold change vs veh, KIAA1704 /// LOC100996395 / RFU, ING1 / Fold change vs veh, ING1 / RFU, TRMT61B / Fold change vs veh, TRMT61B / RFU, FUBP3 / Fold change vs veh, FUBP3 / RFU, TP53 / Fold change vs veh, TP53 / RFU, TNKS2 / Fold change vs veh, TNKS2 / RFU, ZFP14 / Fold change vs veh, ZFP14 / RFU, ACTR2 / Fold change vs veh, ACTR2 / RFU, PPP3R1 / Fold change vs veh, PPP3R1 / RFU, PIK3R1 / Fold change vs veh, PIK3R1 / RFU, HNRNPA1 / Fold change vs veh, HNRNPA1 / RFU, RNF170 / Fold change vs veh, RNF170 / RFU, ZNF28 / Fold change vs veh, ZNF28 / RFU, RNGTT / Fold change vs veh, RNGTT / RFU, OGT / Fold change vs veh, OGT / RFU, BRD1 / Fold change vs veh, BRD1 / RFU, MARS / Fold change vs veh, MARS / RFU, ZNF655 / Fold change vs veh, ZNF655 / RFU, FAHD1 / Fold change vs veh, FAHD1 / RFU, BDP1 / Fold change vs veh, BDP1 / RFU, LRRCC1 / Fold change vs veh, LRRCC1 / RFU, ARID1A / Fold change vs veh, ARID1A / RFU, ZNF146 / Fold change vs veh, ZNF146 / RFU, ZNF330 / Fold change vs veh, ZNF330 / RFU, GPN3 / Fold change vs veh, GPN3 / RFU, C9orf123 / Fold change vs veh, C9orf123 / RFU, N4BP2L2 / Fold change vs veh, N4BP2L2 / RFU, ARFIP1 / Fold change vs veh, ARFIP1 / RFU, FAM179B / Fold change vs veh, FAM179B / RFU, BCL10 / Fold change vs veh, BCL10 / RFU, UHRF1BP1L / Fold change vs veh, UHRF1BP1L / RFU, BET1 / Fold change vs veh, BET1 / RFU, CNOT2 / Fold change vs veh, CNOT2 / RFU, ZNF268 / Fold change vs veh, ZNF268 / Fold change vs veh, ZNF507 / RFU, DGCR2 / Fold change vs veh, DGCR2 / RFU, WDSUB1 / Fold change vs veh, WDSUB1 / Fold change vs veh, HSP90B1 /// MIR3652 / RFU, ADSS / Fold change vs veh, ADSS / RFU, GK / Fold change vs veh, GK / RFU, ZNF148 / Fold change vs veh, ZNF148 / RFU, TAF9 / Fold change vs veh, TAF9 / RFU, SLC1A5 / Fold change vs veh, SLC1A5 / RFU, SLMO2 / Fold change vs veh, SLMO2 / RFU, ABCC4 / Fold change vs veh, ABCC4 / RFU, LOC101060439 /// RAP1B / Fold change vs veh, LOC101060439 /// RAP1B / RFU, RFX7 / Fold change vs veh, RFX7 / RFU, GTPBP10 / Fold change vs veh, GTPBP10 / RFU, CNEP1R1 / Fold change vs veh, CNEP1R1 / RFU, BIVM-ERCC5 /// ERCC5 / Fold change vs veh, BIVM-ERCC5 /// ERCC5 / RFU, ILF3 / Fold change vs veh, ILF3 / RFU 11762660_at / Fold change /veh 11762660_at / RFU VCAN (11757783_s_at) / Fold change /veh VCAN (11757783_s_at) / RFU DDX43 (11728927_at) / Fold change /veh DDX43 (11728927_at) / RFU KRT8 (11758188_x_at) / Fold change /veh KRT8 (11758188_x_at) / RFU NKD1 (11759106_at) / Fold change /veh NKD1 (11759106_at) / RFU SRD5A1 (11742802_a_at) / Fold change /veh SRD5A1 (11742802_a_at) / RFU TPSAB1 /// TPSB2 (11721975_s_at) / Fold change /veh TPSAB1 /// TPSB2 (11721975_s_at) / RFU GSTM3 (11746129_a_at) / Fold change /veh GSTM3 (11746129_a_at) / RFU IL23R (11737362_x_at) / Fold change /veh IL23R (11737362_x_at) / RFU TMEM51 (11727254_a_at) / Fold change /veh TMEM51 (11727254_a_at) / RFU PIWIL2 (11732686_x_at) / Fold change /veh PIWIL2 (11732686_x_at) / RFU ORM1 (11744905_x_at) / Fold change /veh ORM1 (11744905_x_at) / RFU CCDC152 (11743942_at) / Fold change /veh CCDC152 (11743942_at) / RFU ECM1 (11717891_a_at) / Fold change /veh ECM1 (11717891_a_at) / RFU IL23R (11748794_a_at) / Fold change /veh IL23R (11748794_a_at) / RFU TNFAIP8L3 (11732012_x_at) / Fold change /veh TNFAIP8L3 (11732012_x_at) / RFU MBOAT4 (11741988_at) / Fold change /veh MBOAT4 (11741988_at) / RFU 11764193_at / Fold change /veh 11764193_at / RFU TMEM53 (11763286_at) / Fold change /veh TMEM53 (11763286_at) / RFU MAGEB2 (11727129_at) / Fold change /veh MAGEB2 (11727129_at) / RFU TMEM200A (11744735_a_at) / Fold change /veh TMEM200A (11744735_a_at) / RFU CCDC152 (11751479_a_at) / Fold change /veh CCDC152 (11751479_a_at) / RFU FAM211A (11726209_a_at) / Fold change /veh FAM211A (11726209_a_at) / RFU RGS16 (11746705_a_at) / Fold change /veh RGS16 (11746705_a_at) / RFU VCAN (11755009_s_at) / Fold change /veh VCAN (11755009_s_at) / RFU RHOB (11743442_s_at) / Fold change /veh RHOB (11743442_s_at) / RFU RGS16 (11720943_a_at) / Fold change /veh RGS16 (11720943_a_at) / RFU RGS16 (11720944_at) / Fold change /veh RGS16 (11720944_at) / RFU, VPS4B / Fold change vs veh, VPS4B / RFU, CREB1 / Fold change vs veh, CREB1 / RFU, DNAJC13 / Fold change vs veh, DNAJC13 / RFU, GNAQ / Fold change vs veh, GNAQ / RFU, CDK5R1 / Fold change vs veh, CDK5R1 / RFU, ZRANB3 / Fold change vs veh, ZRANB3 / RFU, CUL4A / Fold change vs veh, CUL4A / RFU, CCNY / Fold change vs veh, CCNY / RFU, UFL1 / Fold change vs veh, UFL1 / RFU, COG3 / Fold change vs veh, COG3 / RFU, DIAPH2 / Fold change vs veh, DIAPH2 / RFU, SKA2 / Fold change vs veh, SKA2 / RFU, AFF3 / Fold change vs veh, AFF3 / RFU, LMF1 / Fold change vs veh, LMF1 / RFU, IPO11 / Fold change vs veh, IPO11 / RFU, DFFB / Fold change vs veh, DFFB / RFU, FOXP1 / Fold change vs veh, FOXP1 / RFU, CARD8 / Fold change vs veh, CARD8 / RFU, STRN3 / Fold change vs veh, STRN3 / RFU, ADK / Fold change vs veh, ADK / RFU, RASSF2 / Fold change vs veh, RASSF2 / RFU, WIPF1 / Fold change vs veh, WIPF1 / RFU, LARP1B / Fold change vs veh, LARP1B / RFU, RASA1 / Fold change vs veh, RASA1 / RFU, RB1 / Fold change vs veh, RB1 / RFU, PPFIA1 / Fold change vs veh, PPFIA1 / RFU, MAT2A / Fold change vs veh, MAT2A / RFU, CCT5 / Fold change vs veh, CCT5 / RFU, WDR92 / Fold change vs veh, WDR92 / RFU, CUX1 / Fold change vs veh, CUX1 / RFU, TTC7A / Fold change vs veh, TTC7A / RFU, TMEM135 / Fold change vs veh, TMEM135 / RFU, DEPTOR / Fold change vs veh, DEPTOR / RFU, CPM / Fold change vs veh, CPM / RFU, DNAJB6 / Fold change vs veh, DNAJB6 / RFU, CACNA2D3 / Fold change vs veh, CACNA2D3 / RFU, DTX4 / Fold change vs veh, DTX4 / RFU, TFCP2 / Fold change vs veh, TFCP2 / RFU, GMCL1 /// GMCL1P1 / Fold change vs veh, GMCL1 /// GMCL1P1 / RFU, AEBP2 / Fold change vs veh, AEBP2 / RFU, SNHG1 /// SNORD22 /// SNORD25 /// SNORD26 /// SNORD27 /// SNORD28 /// SNORD29 /// SNORD31 / Fold change vs veh, SNHG1 /// SNORD22 /// SNORD25 /// SNORD26 /// SNORD27 /// SNORD28 /// SNORD29 /// SNORD31 / Fold change (Aza/veh), C12orf56 (ProbeSet 11735607_a_at) / Fold change (ACY-1035/veh), C12orf56 (ProbeSet 11735607_a_at) / Fold change (Aza/veh), FGFR1OP (ProbeSet 11751329_s_at) / Fold change (ACY-1035/veh), FGFR1OP (ProbeSet 11751329_s_at) / Fold change (Aza/veh), VPS36 (ProbeSet 11739960_a_at) / Fold change (ACY-1035/veh), VPS36 (ProbeSet 11739960_a_at) / RFU SYPL1 (11715823_x_at) / Fold change /veh SYPL1 (11715823_x_at) / RFU IGFBP7 (11715501_s_at) / Fold change /veh IGFBP7 (11715501_s_at) / RFU REEP3 (11722064_at) / Fold change /veh REEP3 (11722064_at) / RFU IGLL1 (11728026_x_at) / Fold change /veh IGLL1 (11728026_x_at): dose or concentration left out as unconfirmed. Type of experiment: cell-based, human.

Take `Nc1ccc(-c2cccs2)cc1NC(=O)c1ccc2c(c1)cc(C1CC1)n2CCN1CCOCC1` [ACY-1035]: the “RFU, ZNF28” value was 57.08 RFU.

(Values after article PMC5218480 (PLoS ONE, 2017).)
